From patent EP4725507A1, “POLYPEPTIDE CONJUGATE, PHARMACEUTICAL COMPOSITION CONTAINING POLYPEPTIDE CONJUGATE AND USE THEREOF” (Nanjing Anji Biotechnology Co., Ltd., priority 2023, dated 2025)
Peptide text beside a SMILES is read from it. * marks the point of attachment. Paclitaxel(2'-O-succinyl) = CC(=O)O[C@H]1C(=O)[C@@]2(C)[C@H]([C@H](OC(=O)c3ccccc3)[C@]3(O)C[C@H](OC(=O)[C@H](OC(=O)CCC(=O)*)[C@@H](NC(=O)c4ccccc4)c4ccccc4)C(C)=C1C3(C)C)[C@]1(OC(C)=O)CO[C@@H]1C[C@@H]2O

Experiments:
[1] = tested on: SiHa (human cervical cancer cells); assay: Tumor cell proliferation inhibition (CCK8); format: cell-based; conditions: IC50 of free drug / IC50 of polypeptide conjugate
Text: (§1) Human highly metastatic hepatocellular carcinoma cells HCCLM3, human highly metastatic gastric cancer cells MKN45, human gastric cancer cells BGC-823 and MGC-803, non-small cell lung cancer cells A549, human pancreatic cancer cells ASPC-1, human colon cancer cells LoVo, human ovarian cancer cells A2780, human cervical cancer cells SiHa, human malignant melanoma cells SK-mel-2 and M14, human osteosarcoma cells Saos-2, human bladder transitional cell carcinoma cells T24, human brain glioblastoma cells U87-MG, human lymphoma cells Raji, and human epidermal cancer cells A431 were selected for the experiment. Among them, HCCLM3 cells, MKN45 cells, BGC-823 cells, MGC-803 cells, A431 cells and A549 cells were provided by Nanjing Anji Biotechnology Co., Ltd., and the other cells were provided by Nanjing Ouji Pharmaceutical Technology Service Co., Ltd.
(§2) The aforementioned tumor cells were preserved in a medium containing 10% fetal bovine serum and 1% penicillin-streptomycin, and incubated at 37°C with 5% CO2 and 95% humidity. The aforementioned tumor cells were cultured in T75 flasks with an experimental cell density of 80%. The aforementioned tumor cell lines were mycoplasma-negative.
(§3) Tumor cells in the logarithmic growth phase were taken for the experiment. The cells were digested, counted, and prepared into a cell suspension with a concentration of 1×10^5 cells/mL, which was then inoculated into a 96-well plate (100 µL per well). The 96-well plate was incubated in a 37°C, 5% CO2 incubator for 24 hours. […] After incubating the plate in the incubator for 72 h, the cell morphology of each group was observed under a microscope. Then, 10 µL of CCK8 solution (Nanjing Enjing Biotechnology Co., Ltd.) was added to each well, and the plate was further incubated in the cell incubator for 4 h. After incubation, the absorbance was measured at 450 nm, and the tumor cell proliferation inhibition rate was calculated. The efficiency ratio was the ratio of the IC50 value of the free drug to that of the polypeptide conjugate. Table 1 Tumor cell proliferation inhibition rates of polypeptide conjugates

[2] = tested on: LoVo (human colon cancer cells); assay: Tumor cell proliferation inhibition (CCK8); format: cell-based; conditions: IC50 of free drug / IC50 of polypeptide conjugate
Text: as §1, §2, §3

[3] = tested on: U87-MG (human brain glioblastoma cells); assay: Tumor cell proliferation inhibition (CCK8); format: cell-based; conditions: IC50 of free drug / IC50 of polypeptide conjugate
Text: as §1, §2, §3

[4] = tested on: ASPC-1 (human pancreatic cancer cells); assay: Tumor cell proliferation inhibition (CCK8); format: cell-based; conditions: IC50 of free drug / IC50 of polypeptide conjugate
Text: as §1, §2, §3

[5] = tested on: SK-mel-2 (human malignant melanoma cells); assay: Tumor cell proliferation inhibition (CCK8); format: cell-based; conditions: IC50 of free drug / IC50 of polypeptide conjugate
Text: as §1, §2, §3

[6] = tested on: M14 (human malignant melanoma cells); assay: Tumor cell proliferation inhibition (CCK8); format: cell-based; conditions: IC50 of free drug / IC50 of polypeptide conjugate
Text: as §1, §2, §3

A549 cells = assay: Tumor horizontal migration (scratch test); format: cell-based; conditions: 48 h
Experimental: A549 cells in the logarithmic growth phase were taken, digested with trypsin to prepare a cell suspension, and 1 mL of the cell suspension was inoculated into a 24-well plate with 3.5×10^5 cells per well. The 24-well plate was incubated in a 37°C, 5% CO2 incubator for 24 h, then a scratch was made vertically along the horizontal line at the bottom of the plate using a 200 µL pipette tip (one scratch per well). The original medium was discarded, and the wells were washed twice with 1 mL PBS. A blank group, a positive drug group, and an administration group were set up. […] The cell migration status was photographed at 0 h and 48 h using a microscope (model: CKX31SF, manufacturer: OLYMPUS CORPORATION) at a magnification of 100×. Meanwhile, ImageJ 1.74V was used for quantitative calculation of the number of migrated tumor cells, and the results were expressed as mean ± SD (n = 3).

[7] = tested on: non-small cell lung cancer A549 xenograft tumors; assay: In vivo tumor-inhibitory activity of DOC-AI, A549 xenograft; set-up: species or system BALB/c nude mice; conditions: 4 days on, 3 days off until day 21
Experimental: Non-small cell lung cancer A549 cells and human gastric cancer MKN-45 cells were preserved in F12-K medium containing 10% fetal bovine serum and 1% penicillin + streptomycin, and incubated at 37°C with 5% CO2 and 95% humidity. The aforementioned cells were cultured in T175 flasks with an experimental cell density of 80%. The aforementioned cell lines were mycoplasma-negative. Both A549 cells and MKN-45 cells were provided by Nanjing Anji Biotechnology Co., Ltd.
Non-small cell lung cancer A549 cells in the vigorous growth stage were taken and inoculated subcutaneously into the right axilla of BALB/c nude mice (Nanjing Zhonghua Biotechnology Co., Ltd.) under sterile conditions, with a cell inoculation amount of 1×10^7. The diameter of transplanted tumors in nude mice was measured with a vernier caliper. When the tumors grew to approximately 50 mm^3, 30 tumor-bearing nude mice with good growth status and relatively uniform tumor size were selected and divided into 5 groups, with 6 mice in each group. The administration frequency was continuous administration for 4 days followed by an interval of 3 days, and this cycle was repeated until day 21. The anti-tumor effect in the nude mice was dynamically observed by measuring the tumor diameter. The tumor diameter was measured every other day, and the body weight of the nude mice was weighed simultaneously during the measurement of the tumor diameter. After 21 days of administration, the nude mice were euthanized, the tumor inhibition rate (%) was calculated, and the tumor masses were peeled off and weighed. Table 2 Detection of In Vivo Tumor-Inhibitory Activity of DOC-AI

[8] = tested on: T24 (human bladder transitional cell carcinoma cells); assay: Tumor cell proliferation inhibition (CCK8); format: cell-based; conditions: IC50 of free drug / IC50 of polypeptide conjugate
Text: as §1, §2, §3

[9] = tested on: Raji (human lymphoma cells); assay: Tumor cell proliferation inhibition (CCK8); format: cell-based; conditions: IC50 of free drug / IC50 of polypeptide conjugate
Text: as §1, §2, §3

[10] = tested on: Saos-2 (human osteosarcoma cells); assay: Tumor cell proliferation inhibition (CCK8); format: cell-based; conditions: IC50 of free drug / IC50 of polypeptide conjugate
Text: as §1, §2, §3

[11] = tested on: A2780 (human ovarian cancer cells); assay: Tumor cell proliferation inhibition (CCK8); format: cell-based; conditions: IC50 of free drug / IC50 of polypeptide conjugate
Text: as §1, §2, §3

CC(=O)O[C@@]12CO[C@@H]1C[C@H](O)[C@@]1(C)C(=O)[C@H](O)C3=C(C)[C@@H](OC(=O)[C@H](OC(=O)CCC(=O)N[C@@H](CCCNC(=N)N)C(=O)N[C@@H](CO)C(=O)N4CCC[C@H]4C(=O)N[C@@H](Cc4ccc(O)cc4)C(=O)N[C@@H](C)C(=O)N[C@@H](CC(N)=O)C(=O)N[C@@H](CO)C(=O)O)[C@@H](NC(=O)OC(C)(C)C)c4ccccc4)C[C@@](O)([C@@H](OC(=O)c4ccccc4)[C@H]21)C3(C)C [DOC-AI]
Efficiency Ratios [1]: 3.90 | Efficiency Ratios [2]: 1.18 | Efficiency Ratios [3]: 2.05 | Efficiency Ratios [4]: 2.31 | Efficiency Ratios [5]: 1.00 | Efficiency Ratios [6]: 1.21 | horizontal migration rate (A549 cells; 1 nM DOC-AI compared with 100 nM DOC): lower than that of 100 nM DOC | horizontal migration of A549 cells (A549 cells; 100 nM, 10 nM, 1 nM, compared with the blank group): effectively inhibited the horizontal migration of A549 cells in a concentration-dependent manner | Final Tumor Volume ([7]; 6.20 µmol/Kg): 73.75±23.01 | Tumor Inhibition Rate ([7]; 6.20 µmol/Kg): 90.40% | Tumor Weight ([7]; 6.20 µmol/Kg): 81.00 ± 40.81 mg | Final Tumor Volume ([7]; 12.40 µmol/Kg): 31.31±22.73 | Tumor Inhibition Rate ([7]; 12.40 µmol/Kg): 95.33% | Tumor Weight ([7]; 12.40 µmol/Kg): 51.83 ± 31.36 mg | Final Tumor Volume ([7]; 24.80 µmol/Kg): 20.30±20.80 | Tumor Inhibition Rate ([7]; 24.80 µmol/Kg): 97.33% | Tumor Weight ([7]; 24.80 µmol/Kg): 20.53 ± 20.80 mg

CC(=O)O[C@H]1C(=O)[C@@]2(C)[C@H]([C@H](OC(=O)c3ccccc3)[C@]3(O)C[C@H](OC(=O)[C@H](OC(=O)CCC(=O)N[C@@H](CCCNC(=N)N)C(=O)N[C@@H](CO)C(=O)N4CCC[C@H]4C(=O)N[C@@H](Cc4ccc(O)cc4)C(=O)N[C@@H](C)C(=O)N[C@@H](CC(N)=O)C(=O)N[C@@H](CO)C(=O)O)[C@@H](NC(=O)c4ccccc4)c4ccccc4)C(C)=C1C3(C)C)[C@]1(OC(C)=O)CO[C@@H]1C[C@@H]2O [PTX-AI] ({Paclitaxel(2'-O-succinyl)}-RSPYANS-OH)
Efficiency Ratios [8]: 1.78 | Efficiency Ratios [9]: 1.09 | Efficiency Ratios [10]: 1.47 | Efficiency Ratios [11]: 1.11
